Test results from paper PMC9744290, “Two apicoplast dwelling glycolytic enzymes provide key substrates for metabolic pathways in the apicoplast and are critical for Toxoplasma growth” (PLOS Pathogens, 2022).

Target: T1, PGK2 (Toxoplasma gondii, UniProt A0A7J6KGR7)
T1 construct: gene TGRH88_001020; His-SUMO fusion, E. coli BL21(DE3), His-tag resin
T1 sequence (A0A7J6KGR7 1-593): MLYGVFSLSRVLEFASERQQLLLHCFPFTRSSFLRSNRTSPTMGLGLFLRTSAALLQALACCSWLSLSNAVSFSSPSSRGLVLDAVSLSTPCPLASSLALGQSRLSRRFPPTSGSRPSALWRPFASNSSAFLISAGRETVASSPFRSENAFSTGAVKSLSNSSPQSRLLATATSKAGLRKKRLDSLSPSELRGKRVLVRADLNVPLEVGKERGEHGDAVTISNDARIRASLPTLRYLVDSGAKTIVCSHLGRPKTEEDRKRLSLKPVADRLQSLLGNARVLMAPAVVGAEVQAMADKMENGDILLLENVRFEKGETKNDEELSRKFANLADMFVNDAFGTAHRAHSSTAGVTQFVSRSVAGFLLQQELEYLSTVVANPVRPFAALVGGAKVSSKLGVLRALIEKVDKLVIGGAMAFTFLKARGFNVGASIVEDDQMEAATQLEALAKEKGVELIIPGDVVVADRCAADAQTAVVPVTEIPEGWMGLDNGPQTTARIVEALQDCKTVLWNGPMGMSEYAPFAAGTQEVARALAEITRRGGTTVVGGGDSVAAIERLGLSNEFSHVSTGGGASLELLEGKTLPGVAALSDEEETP
Experiment: NADH-coupled colorimetric PGK assay kit, OD340
Format: biochemical
Conditions: reverse direction of PGK; 0-960 uM substrate, 5 ug/ml enzyme, 2 min

## O=C(O)[C@H](O)COP(=O)(O)O [3-phosphoglycerate]
  NADH-coupled colorimetric PGK assay kit, OD340: assayed with recombinant enzymes under different concentrations of 3-phosphoglycerate (3-PG)
